Experimental data from ChEMBL document CHEMBL5346978, “Exploration of Tetrahydroisoquinoline- and Benzo[c]azepine-Based Sphingosine 1-Phosphate Receptor 1 Agonists for the Treatment of Multiple Sclerosis” (J Med Chem, 2023).
Active and inactive are the calls of the source. The rule behind the calls is not given here.

Assays:
[1] = Observed volume of distribution at steady state in ICR mouse at 1 mg/kg, iv measured at 0.25 to 12 hrs by LC-MS/MS analysis; type: ADME, organism-based; details: in vivo, time 0.25-12 hrs, read-out: Vdss
Mus musculus [2] = assay: In vivo agonist activity at S1P1 in po dosed mouse assessed as reduction in peripheral lymphocyte count measured at 6 hrs; type: functional, organism-based; details: dose 1-10 mg/kg
[3] = target: T1, Sphingosine 1-phosphate receptor 4 (Homo sapiens, UniProt O95977); assay: Agonist activity at S1P4 (unknown origin) expressed in PathHunter CHO-K1 EDG1 beta-arrestin cells assessed as beta-arrestin recruitment; type: functional, cell-based
T1 sequence (O95977 whole entry): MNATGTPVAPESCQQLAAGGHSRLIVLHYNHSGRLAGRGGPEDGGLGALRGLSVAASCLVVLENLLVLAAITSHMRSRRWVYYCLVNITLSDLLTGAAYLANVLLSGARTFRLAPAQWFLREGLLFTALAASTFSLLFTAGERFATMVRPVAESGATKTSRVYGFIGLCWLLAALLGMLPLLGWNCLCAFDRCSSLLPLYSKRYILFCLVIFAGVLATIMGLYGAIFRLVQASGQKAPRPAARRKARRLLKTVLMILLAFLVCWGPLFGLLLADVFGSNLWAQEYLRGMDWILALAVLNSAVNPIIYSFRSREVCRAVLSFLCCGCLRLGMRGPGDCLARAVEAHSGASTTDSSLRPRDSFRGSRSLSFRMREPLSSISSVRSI

CYP2C9 = CYP2C9 (Homo sapiens, UniProt P11712); assay: Inhibition of CYP2C9 in human liver microsomes using diclofenac as substrate assessed as residual activity at 10 uM preincubated for 5 mins followed by substrate addition and measured after 15 mins in presence of NADPH by LC-MS/MS analysis; type: ADME, Microsome; details: probe diclofenac, time 20 min, read-out: Activity
Mus musculus [4] = assay: In vivo agonist activity at S1P1 in po dosed mouse assessed as reduction in peripheral lymphocyte count at 1 to 10 mg/kg, po measured after 24 hrs; type: functional, organism-based; details: dose 1-10 mg/kg
[5] = Observed MRT (infinitive) in ICR mouse at 1 mg/kg, iv measured at 0.25 to 12 hrs by LC-MS/MS analysis; type: ADME, organism-based; details: in vivo, time 0.25-12 hrs
[6] = target: T1, Sphingosine 1-phosphate receptor 4; assay: Agonist activity at S1P4 (unknown origin) expressed in CHO cells assessed as Ca2+ activation; type: functional, cell-based
CYP2D6 = CYP2D6 (Homo sapiens, UniProt P10635); assay: Inhibition of CYP2D6 in human liver microsomes using dextromethorphan as substrate assessed as residual activity at 10 uM preincubated for 5 mins followed by substrate addition and measured after 15 mins in presence of NADPH by LC-MS/MS analysis; type: ADME, Microsome; details: probe dextromethorphan, time 20 min, read-out: Activity
CYP3A4 = CYP3A4 (Homo sapiens, UniProt P08684); assay: Inhibition of CYP3A4 in human liver microsomes using midazolam as substrate assessed as residual activity at 10 uM preincubated for 5 mins followed by substrate addition and measured after 15 mins in presence of NADPH by LC-MS/MS analysis; type: ADME, Microsome; details: probe midazolam, time 20 min, read-out: Activity
[7] = Microsomal stability in mouse liver microsomes assessed as parent compound remaining preincubated for 5 mins followed by NADPH addition measured after 60 mins by LC-MS/MS analysis; type: ADME, Microsome; details: time 65 min, read-out: Stability
[8] = Microsomal stability in rat liver microsomes assessed as parent compound remaining preincubated for 5 mins followed by NADPH addition measured after 60 mins by LC-MS/MS analysis; type: ADME, Microsome; details: time 65 min, read-out: Stability
[9] = Cardiotoxicity in human iPSC-derived cardiomyocyte assessed as effect on intracellular cardiomyocyte contraction at 10 uM measured for 2 mins by FLIPR analysis; type: toxicity, cell-based; details: cardiac muscle cell
[10] = target: Sphingosine 1-phosphate receptor 2 (Homo sapiens, UniProt O95136); assay: Agonist activity at S1P2 (unknown origin) expressed in PathHunter CHO-K1 EDG1 beta-arrestin cells assessed as beta-arrestin recruitment; type: functional, cell-based
Mus musculus [11] = assay: In vivo agonist activity at S1P1 in mouse assessed as reduction in peripheral lymphocyte count at 10 mg/kg, po measured at 6 hrs; type: functional, organism-based
[12] = Observed MRT (infinitive) in ICR mouse at 10 mg/kg, po measured at 0.25 to 12 hrs by LC-MS/MS analysis; type: ADME, organism-based; details: in vivo, time 0.25-12 hrs
Mus musculus [13] = assay: In vivo agonist activity at S1P1 in mouse assessed as reduction in peripheral lymphocyte count at 10 mg/kg, po measured at 3 hrs; type: functional, organism-based
[14] = Tmax in ICR mouse at 10 mg/kg, po measured at 0.25 to 12 hrs by LC-MS/MS analysis; type: ADME, organism-based; details: in vivo, time 0.25-12 hrs
[15] = target: T2, Sphingosine 1-phosphate receptor 1 (Homo sapiens, UniProt P21453); assay: Agonist activity at S1P1 (unknown origin) expressed in human HEK293/Galpha15 cells assessed as Ca2+ activation measured for 2 hrs by FLIPR analysis; type: functional, cell-based
[16] = target: T2, Sphingosine 1-phosphate receptor 1; assay: Agonist activity at S1P1 (unknown origin) expressed in PathHunter CHO-K1 EDG1 beta-arrestin cells assessed as beta-arrestin2 recruitment incubated for 90 mins by chemiluminescence based assay; type: functional, cell-based
[17] = target: Sphingosine 1-phosphate receptor 5 (Homo sapiens, UniProt Q9H228); assay: Agonist activity at S1P5 (unknown origin) expressed in CHO cells assessed as Ca2+ activation; type: functional, cell-based
[18] = Half life in ICR mouse at 10 mg/kg, po measured at 0.25 to 12 hrs by LC-MS/MS analysis; type: ADME, organism-based; details: in vivo, time 0.25-12 hrs
[19] = target: T2, Sphingosine 1-phosphate receptor 1; assay: Agonist activity at S1P1 (unknown origin) expressed in human HEK293/Galpha15 cells assessed as Ca2+ activation at 1 uM measured for 2 hrs by FLIPR analysis relative to control; type: functional, cell-based; details: filed as agonist
Mus musculus [20] = assay: In vivo agonist activity at S1P1 in mouse assessed as reduction in peripheral lymphocyte count at 1 to 3 mg/kg, po measured at 3 hrs; type: functional, organism-based; details: dose 1-3 mg/kg
[21] = Half life in ICR mouse at 1 mg/kg, iv measured at 0.25 to 12 hrs by LC-MS/MS analysis; type: ADME, organism-based; details: in vivo, time 0.25-12 hrs
[22] = Toxicity in C57BL/6 mouse assessed as body weight loss at 10 mg/kg, po administered once a day for 23 days; type: organism-based; details: in vivo, 552 h, time 23 day
[23] = Observed clearance in ICR mouse at 1 mg/kg, iv measured at 0.25 to 12 hrs by LC-MS/MS analysis; type: ADME, organism-based; details: in vivo, time 0.25-12 hrs
[24] = AUClast in ICR mouse at 1 mg/kg, iv measured at 0.25 to 12 hrs by LC-MS/MS analysis; type: ADME, organism-based; design: time lower 0.25 hrs, dose 1 mg/kg, time upper 12 hrs, route iv; details: in vivo
[25] = Oral bioavailability in ICR mouse at 10 mg/kg measured at 0.25 to 12 hrs by LC-MS/MS analysis; type: ADME, organism-based; details: in vivo, time 0.25-12 hrs
Mus musculus [26] = assay: Protection against MOG35-55/CFA-induced experimental autoimmune encephalomyelitis C57BL/6 mouse model assessed as reduction disease progression at 10 mg/kg, po administered once a day for 23 days; type: functional, organism-based; details: time 23.0 day
[27] = Cmax in ICR mouse at 10 mg/kg, po measured at 0.25 to 12 hrs by LC-MS/MS analysis; type: ADME, organism-based; design: time upper 12 hrs, dose 10 mg/kg, time lower 0.25 hrs, route po; details: in vivo
[28] = AUClast in ICR mouse at 10 mg/kg, po measured at 0.25 to 12 hrs by LC-MS/MS analysis; type: ADME, organism-based; design: time 0.25-12 hrs, dose 10 mg/kg, route po; details: in vivo
[29] = target: T2, Sphingosine 1-phosphate receptor 1; assay: Agonist activity at S1P1 (unknown origin) expressed in PathHunter CHO-K1 EDG1 beta-arrestin cells assessed as beta-arrestin2 recruitment at 1 uM incubated for 90 mins by chemiluminescence based assay relative to control; type: functional, cell-based; details: filed as agonist
[30] = target: Sphingosine 1-phosphate receptor 3 (Homo sapiens, UniProt Q99500); assay: Agonist activity at S1P3 (unknown origin) expressed in PathHunter CHO-K1 EDG1 beta-arrestin cells assessed as beta-arrestin recruitment; type: functional, cell-based
Chain of Sphingosine 1-phosphate receptor 3 (Q99500 whole entry): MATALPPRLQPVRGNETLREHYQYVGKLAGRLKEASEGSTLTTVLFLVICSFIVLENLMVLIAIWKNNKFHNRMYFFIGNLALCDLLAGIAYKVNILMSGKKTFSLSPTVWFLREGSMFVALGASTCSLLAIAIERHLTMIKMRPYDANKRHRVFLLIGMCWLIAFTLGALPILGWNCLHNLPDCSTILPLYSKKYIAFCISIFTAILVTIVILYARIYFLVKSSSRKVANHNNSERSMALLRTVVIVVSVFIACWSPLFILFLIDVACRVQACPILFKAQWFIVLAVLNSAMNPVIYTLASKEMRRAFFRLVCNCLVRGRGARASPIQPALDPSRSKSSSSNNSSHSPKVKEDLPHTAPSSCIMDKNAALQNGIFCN

T2 sequence (P21453 whole entry): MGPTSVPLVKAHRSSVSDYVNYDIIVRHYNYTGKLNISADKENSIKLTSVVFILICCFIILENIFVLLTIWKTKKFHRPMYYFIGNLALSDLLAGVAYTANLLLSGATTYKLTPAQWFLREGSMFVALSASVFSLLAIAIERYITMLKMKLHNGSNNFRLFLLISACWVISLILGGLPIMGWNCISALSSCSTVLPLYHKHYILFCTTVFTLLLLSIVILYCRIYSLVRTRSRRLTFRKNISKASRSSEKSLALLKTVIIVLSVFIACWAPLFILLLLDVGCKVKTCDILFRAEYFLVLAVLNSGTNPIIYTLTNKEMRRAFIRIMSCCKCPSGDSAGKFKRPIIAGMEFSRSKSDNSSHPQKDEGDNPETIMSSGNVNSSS
Chain of Sphingosine 1-phosphate receptor 2 (O95136 whole entry): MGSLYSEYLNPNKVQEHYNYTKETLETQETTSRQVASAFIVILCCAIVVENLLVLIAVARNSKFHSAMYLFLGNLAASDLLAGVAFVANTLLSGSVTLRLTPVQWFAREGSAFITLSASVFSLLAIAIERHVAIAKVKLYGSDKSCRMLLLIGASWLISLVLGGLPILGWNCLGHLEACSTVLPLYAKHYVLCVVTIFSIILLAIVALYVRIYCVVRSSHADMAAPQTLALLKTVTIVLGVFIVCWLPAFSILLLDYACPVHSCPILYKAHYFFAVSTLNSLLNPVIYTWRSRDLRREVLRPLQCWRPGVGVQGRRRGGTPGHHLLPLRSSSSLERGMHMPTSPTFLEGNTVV
Chain of CYP2D6 (P10635 whole entry): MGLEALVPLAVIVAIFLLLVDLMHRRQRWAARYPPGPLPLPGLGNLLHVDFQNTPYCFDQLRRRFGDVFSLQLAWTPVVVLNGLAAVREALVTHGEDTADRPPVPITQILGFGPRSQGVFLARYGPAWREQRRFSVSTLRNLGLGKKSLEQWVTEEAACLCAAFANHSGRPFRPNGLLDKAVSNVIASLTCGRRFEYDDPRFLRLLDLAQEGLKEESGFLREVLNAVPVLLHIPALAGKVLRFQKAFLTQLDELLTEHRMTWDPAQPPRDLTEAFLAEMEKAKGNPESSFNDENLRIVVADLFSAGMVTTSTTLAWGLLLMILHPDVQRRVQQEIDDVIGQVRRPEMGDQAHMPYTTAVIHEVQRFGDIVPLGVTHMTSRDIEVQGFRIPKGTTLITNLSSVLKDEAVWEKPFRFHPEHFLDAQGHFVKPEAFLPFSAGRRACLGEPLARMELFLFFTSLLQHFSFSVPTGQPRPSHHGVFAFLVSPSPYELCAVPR
Chain of Sphingosine 1-phosphate receptor 5 (Q9H228 whole entry): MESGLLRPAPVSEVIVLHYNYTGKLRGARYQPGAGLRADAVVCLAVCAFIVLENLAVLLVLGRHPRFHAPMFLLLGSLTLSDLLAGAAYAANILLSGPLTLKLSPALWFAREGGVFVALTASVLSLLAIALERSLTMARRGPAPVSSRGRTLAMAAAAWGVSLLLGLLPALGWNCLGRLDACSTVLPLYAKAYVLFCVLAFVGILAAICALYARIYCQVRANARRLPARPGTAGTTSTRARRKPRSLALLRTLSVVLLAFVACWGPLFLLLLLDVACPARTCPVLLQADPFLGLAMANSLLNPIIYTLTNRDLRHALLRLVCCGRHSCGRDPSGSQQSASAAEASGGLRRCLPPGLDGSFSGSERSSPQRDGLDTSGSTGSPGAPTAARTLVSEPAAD
Chain of CYP3A4 (P08684 whole entry): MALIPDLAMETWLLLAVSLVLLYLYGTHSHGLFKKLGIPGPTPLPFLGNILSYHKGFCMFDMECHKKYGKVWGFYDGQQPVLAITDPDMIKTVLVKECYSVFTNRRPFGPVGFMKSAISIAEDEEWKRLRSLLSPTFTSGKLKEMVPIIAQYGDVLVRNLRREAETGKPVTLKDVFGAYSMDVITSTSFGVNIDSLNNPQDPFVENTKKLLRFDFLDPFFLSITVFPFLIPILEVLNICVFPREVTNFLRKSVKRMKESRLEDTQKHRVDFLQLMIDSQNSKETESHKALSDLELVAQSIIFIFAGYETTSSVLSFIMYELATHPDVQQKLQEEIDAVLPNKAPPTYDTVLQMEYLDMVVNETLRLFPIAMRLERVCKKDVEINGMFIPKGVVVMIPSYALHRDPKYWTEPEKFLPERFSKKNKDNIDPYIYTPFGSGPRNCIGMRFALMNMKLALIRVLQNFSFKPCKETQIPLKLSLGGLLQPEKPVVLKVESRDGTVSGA
Chain of CYP2C9 (P11712 whole entry): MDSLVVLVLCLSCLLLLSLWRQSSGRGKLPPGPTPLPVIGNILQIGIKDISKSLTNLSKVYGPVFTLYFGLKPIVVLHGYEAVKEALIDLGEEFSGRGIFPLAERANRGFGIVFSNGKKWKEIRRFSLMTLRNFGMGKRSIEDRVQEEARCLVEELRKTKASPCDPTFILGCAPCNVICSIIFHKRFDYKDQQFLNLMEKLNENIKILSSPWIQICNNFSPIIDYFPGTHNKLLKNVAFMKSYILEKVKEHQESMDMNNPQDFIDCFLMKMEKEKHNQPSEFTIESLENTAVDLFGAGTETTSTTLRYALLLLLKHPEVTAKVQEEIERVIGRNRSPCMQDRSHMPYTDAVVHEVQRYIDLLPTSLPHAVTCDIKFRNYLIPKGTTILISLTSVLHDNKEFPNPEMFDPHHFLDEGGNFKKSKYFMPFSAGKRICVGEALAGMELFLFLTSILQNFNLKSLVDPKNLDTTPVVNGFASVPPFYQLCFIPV

CC(C)Oc1ccc(COc2ccc3c(c2)CCCN(S(=O)(=O)CCC(=O)O)C3)cc1C#N
Vd [1]: 0.6 L/kg | Activity (Mus musculus [2]): Dose-Dependent Effect | EC50 [3]: 17700 nM | activity at 0.25 h, 10 µM (CYP2C9): 96.2% | Activity (Mus musculus [4]): Active | MRT inf [5]: 0.4 h | EC50 [6]: 33000 nM | activity at 0.25 h, 10 µM (CYP2D6): 94.8% | activity at 0.25 h, 10 µM (CYP3A4): 96.4% | remaining at 1 h [7]: 67.1% | remaining at 1 h [8]: 62.2% | Activity [9]: Non-Toxic | EC50 [10]: > 100000 nM | Activity (Mus musculus [11]): Active | MRT inf [12]: 2.5 h | Activity (Mus musculus [13]): Active | Tmax [14]: 5 h | EC50 [15]: 21 nM | EC50 [16]: 16 nM | EC50 [17]: 110 nM | half-life [18]: 1.8 h | Activity [19]: 113% | Activity (Mus musculus [20]): Active | half-life [21]: 0.6 h | Activity [22]: Non-Toxic | clearance [23]: 29 mL/min/kg | AUC(0-t) [24]: 593 ng·h/mL | bioavailability [25]: 33% | Activity (Mus musculus [26]): Active | Cmax [27]: 1130 ng/mL | AUC(0-t) [28]: 1960 ng·h/mL | Activity [29]: 81% | EC50 [30]: > 100000 nM

CCCCCCCCCCCCC/C=C/[C@@H](O)[C@@H](N)COP(=O)(O)O
EC50 [3]: 92 nM | EC50 [6]: 9 nM | EC50 [30]: 22 nM
